US20240308987A1, “SMALL MOLECULE INHIBITOR AGAINST NASOPHARYNGEAL CARCINOMA, PREPARATION METHOD AND APPLICATION THEREOF” (SHENZHEN BAY LABORATORY, priority 2021, published 2024)

Test system: C666-1 cells
Test: C666-1 Cell Viability Assay (Resazurin cytotoxicity test)
Format: cell-based
Settings: Homo sapiens, C6661, EB virus-positive C666-1 cells, 72 hours treatment, 100-0.78 micromole/L, read-out: Inhibitory Rate
Description: In order to evaluate the inhibitory effect of the small molecular compound of the present disclosure on EBNA1 at the cellular level, a cytotoxicity test was performed.
As mentioned in the Background of the present disclosure, nasopharyngeal carcinoma is a kind of disease highly associated with latent infection of EB virus. EB virus in latent state only expresses limited proteins to maintain its genome replication, among which EBNA1 protein is an essential functional protein. Studies have confirmed that inhibition of EBNA1 can reduce the proliferation of the corresponding nasopharyngeal carcinoma cells or kill them. Therefore, EB virus-positive nasopharyngeal carcinoma tumor cells (C666-1 cells) are selected for test to verify the effect of the small molecular compound of the present disclosure.
During testing, 100 microliters of different cell lines were inoculated onto a transparent 96-well plate, and 5×10^3 cells were inoculated in each well for C666-1 cells. After the cells were cultured in an incubator under […] at 37° C. for 24 hours, 10 microliters of compound with a concentration ranging from 1 mmol/L to 7.8 micromol/L were added to each well (8 points, double dilution, the final concentration was 100-0.78 micromole/L), and treated in the incubator under carbon dioxide at 37° C. for 72 hours. Cell viability was assessed using the redox indicator Resazurin. After addition of 10 microliters of 600 micromole/liter Resazurin to each well and incubation at 37° C. for 3 hours. Using a Tecan microplate reader, the fluorescence signals were detected at an […]. A software was used to fit the inhibition curve and calculate half-maximal effect concentration (EC50). The selectivity of compound activity was assessed by comparing the EC50 values of EB virus-positive and EB virus-negative cell lines.

SMILES	EC50 [µM]
O=C(Cc1cccnc1)Nc1ccc(OC2CN(c3cccc(C(=O)O)c3-c3ccccc3)C2)cc1F [Example 54a, 6-(3-(3-fluoro-4-(2-(pyridin-3-yl)acetamido)phenoxy)azetidin-1-yl)-[1,1′-biphenyl]-2-carboxylic acid]	1 to 10
O=C(Cc1cccnc1)Nc1ccc(OC2CN(c3cccc(C(=O)O)c3)C2)cc1 [Example 49a, 3-(3-(4-(2-(pyridin-3-yl)acetamido)phenoxy)azetidin-1-yl) benzoic acid]	10 to 50
O=C(NO)c1cccc(N2CC(Oc3ccc(/C=C/c4cccnc4)cc3)C2)c1-n1cccc1 [Example 28b, (E)-N-hydroxy-3-(3-(4-(2-(pyridin-3-yl)vinyl)phenoxy)azetidin-1-yl)-2-(1H-pyrrol-1-yl) benzamide]	< 1
O=C(Cc1ccc(OC2CN(c3cccc(C(=O)O)c3-c3ccccc3)C2)cc1)Nc1cccnc1 [Example 40a, 6-(3-(4-(2-oxo-2-(pyridin-3-ylamino)ethyl)phenoxy)azetidin-1-yl)-[1,1′-biphenyl]-2-carboxylic acid]	1 to 10
COC(=O)c1cccc(N2CC(Oc3ccc(CC(=O)Nc4cccnc4)cc3)C2)c1-c1ccc2cc[nH]c2c1 [Example 44, methyl 2-(1H-indol-6-yl)-3-(3-(4-(2-oxo-2-(pyridin-3-ylamino)ethyl)phenoxy)azetidin-1-yl) benzoate]	< 1
COC(=O)c1cccc(N2CC(Oc3ccc(OCc4cccnc4)cc3)C2)c1-n1cccc1 [Example 24, methyl 3-(3-(4-(pyridin-3-ylmethoxy)phenoxy)azetidin-1-yl)-2-(1H-pyrrol-1-yl) benzoate]	1 to 10
O=C(O)c1cccc(N2CC(Oc3ccc(COCc4cccnc4)cc3)C2)c1-n1cccc1 [Example 27a, 3-(3-(4-((pyridin-3-ylmethoxy)methyl)phenoxy)azetidin-1-yl)-2-(1H-pyrrol-1-yl) benzoic acid]	> 50
COC(=O)c1cccc(N2CC(Oc3ccc(COc4cccnc4)cc3C)C2)c1-n1cccc1 [Example 16, methyl 3-(3-(2-methyl-4-((pyridin-3-yloxy)methyl)phenoxy)azetidin-1-yl)-2-(1H-pyrrol-1-yl) benzoate]	10 to 50
O=C(c1cccc(N2CC(Oc3ccc(COc4cccnc4)cc3)C2)c1-n1cccc1)N1CCCC1 [Example 1f, (3-(3-(4-((pyridin-3-yloxy)methyl)phenoxy)azetidin-1-yl)-2-(1H-pyrrol-1-yl)phenyl)(pyrrolidin-1-yl) methanone]	1 to 10
O=C(NO)c1cccc(N2CC(Oc3ccc(COc4cccnc4)cc3)C2)c1-n1cccc1 [Example 1c, N-hydroxy-3-(3-(4-((pyridin-3-yloxy)methyl)phenoxy)azetidin-1-yl)-2-(1H-pyrrole-1-yl) benzamide]	< 1
O=C(O)c1cccc(N2CC(Oc3ccc(COc4cccnc4)c(Cl)c3)C2)c1-n1cccc1 [Example 19a, 3-(3-(3-chloro-4-((pyridin-3-yloxy)methyl)phenoxy)azetidin-1-yl)-2-(1H-pyrrol-1-yl) benzoic acid]	10 to 50
Cc1cc(COc2cccnc2)ccc1OC1CN(c2cccc(C(=O)O)c2-n2cccc2)C1 [Example 16a, 3-(3-(2-methyl-4-((pyridin-3-yloxy)methyl)phenoxy)azetidin-1-yl)-2-(1H-pyrrol-1-yl) benzoic acid]	> 50
O=C(NO)c1cccc(N2CC(Oc3ccc(/C=C/c4cccnc4)cc3)C2)c1-c1ccccc1 [Example 36b, (E)-N-hydroxy-6-(3-(4-(2-(pyridin-3-yl)vinyl)phenoxy)azetidin-1-yl)-[1,1′-biphenyl]-2-carboxamide]	< 1
O=C(Nc1ccc(OC2CN(c3cccc(C(=O)O)c3-c3cccc(Cl)c3)C2)cc1)Nc1cccc(C(F)(F)F)c1 [Example 37a, 3′-chloro-6-(3-(4-(3-(3-(trifluoromethyl)phenyl)ureido)phenoxy)azetidin-1-yl)-[1,1′-biphenyl]-2-carboxylic acid]	> 50
O=C(O)c1cccc(N2CC(Oc3ccc(COc4ccsn4)cc3)C2)c1-n1cccc1 [Example 33a, 3-(3-(4-((isothiazol-3-yloxy)methyl)phenoxy)azetidin-1-yl)-2-(1H-pyrrol-1-yl) benzoic acid]	> 50
COC(=O)c1cccc(N2CC(Oc3ccc(NC(=O)Nc4cccc(C(F)(F)F)c4)cc3)C2)c1-n1cccc1 [Example 10, methyl 2-(1H-pyrrol-1-yl)-3-(3-(4-(3-(3-(trifluoromethyl)phenyl)ureido)phenoxy)azetidin-1-yl) benzoate]	10 to 50
COC(=O)c1cccc(C#Cc2ccc(CC(=O)Nc3cccnc3)cc2)c1-c1ccc2cc[nH]c2c1 [Example 61, methyl 2-(1H-indol-6-yl)-3-((4-(2-oxo-2-(pyridin-3-ylamino)ethyl)phenyl)ethynyl) benzoate]	< 1

SMILES	EC50 [µM]
O=C(Cc1cccnc1)Nc1ccc(C#Cc2cccc(C(=O)O)c2-c2ccccc2)cc1 [Example 62a, 6-((4-(2-(pyridin-3-yl)acetamido)phenyl)ethynyl)-[1,1′-biphenyl]-2-carboxylic acid]	< 1
COC(=O)c1cccc(C#Cc2ccc(NC(=O)Nc3cccnc3)c(O)c2)c1-c1ccccc1 [Example 22, methyl 6-((3-hydroxy-4-(3-(pyridin-3-yl)ureido)phenyl)ethynyl)-[1,1′-biphenyl]-2-carboxylate]	< 1
COC(=O)c1cccc(C#Cc2ccc(NC(=O)Nc3cccnc3)cc2)c1-c1cccc(OCCO)c1 [Example 57, methyl 3′-(2-hydroxyethoxy)-6-((4-(3-(pyridin-3-yl)ureido)phenyl)ethynyl)-[1,1′-biphenyl]-2-carboxylate]	1 to 10
Cn1ccc(OCc2ccc(OC3CN(c4cccc(C(=O)O)c4-n4cccc4)C3)cc2)n1 [Example 32a, 3-(3-(4-(((1-methyl-1H-pyrazol-3-yl)oxy)methyl)phenoxy)azetidin-1-yl)-2-(1H-pyrrol-1-yl) benzoic acid]	> 50
O=C(Nc1ccc(OC2CN(c3cccc(C(=O)O)c3-n3cccc3)C2)cc1)Nc1cccnc1 [Example 34a, 3-(3-(4-(3-(pyridin-3-yl)ureido)phenoxy)azetidin-1-yl)-2-(1H-pyrrol-1-yl) benzoic acid]	1 to 10
COC(=O)c1cccc(N2CC(Oc3ccc(COc4ncccn4)cc3)C2)c1-n1cccc1 [Example 11, methyl 3-(3-(4-((pyrimidin-2-yloxy)methyl)phenoxy)azetidin-1-yl)-2-(1H-pyrrol-1-yl) benzoate]	> 50
O=C(Nc1ccc(OC2CN(c3cccc(C(=O)O)c3-c3ccccc3)C2)cc1)Nc1cccnc1 [Example 42a, 6-(3-(4-(3-(pyridin-3-yl)ureido)phenoxy)azetidin-1-yl)-[1,1′-biphenyl]-2-carboxylic acid]	1 to 10
Cc1c(C(=O)O)cccc1N1CC(Oc2ccc(NC(=O)Cc3cccnc3)cc2)C1 [Example 53a, 2-methyl-3-(3-(4-(2-(pyridin-3-yl)acetamido)phenoxy)azetidin-1-yl) benzoic acid]	10 to 50
COC(=O)c1cccc(N2CC(Oc3ccc(NC(=O)Nc4cncc(C)c4)cc3)C2)c1-n1cccc1 [Example 47, methyl 3-(3-(4-(3-(5-methylpyridin-3-yl)ureido)phenoxy)azetidin-1-yl)-2-(1H-pyrrol-1-yl) benzoate]	10 to 50
COC(=O)c1cccc(N2CC(Oc3ccc(CC(=O)Nc4cccnc4)cc3)C2)c1-c1ccccc1 [Example 40, methyl 6-(3-(4-(2-oxo-2-(pyridin-3-ylamino)ethyl)phenoxy)azetidin-1-yl)-[1,1′-biphenyl]-2-carboxylate]	< 1
O=C(Nc1ccc(C#Cc2cccc(C(=O)O)c2-c2ccccc2)cc1)Nc1cccnc1 [Example 58a, 6-((4-(3-(pyridin-3-yl)ureido)phenyl)ethynyl)-[1,1′-biphenyl]-2-carboxylic acid]	1 to 10
COC(=O)c1cccc(N2CC(Oc3ccc(COc4cccnc4)cc3)C2)c1-c1cccc(Cl)c1 [Example 18, methyl 3′-chloro-6-(3-(4-((pyridin-3-yloxy)methyl)phenoxy)azetidin-1-yl)-[1,1′-biphenyl]-2-carboxylate]	1 to 10
COC(=O)c1cccc(N2CC(Oc3ccc(Oc4cccnc4)cc3)C2)c1-n1cccc1 [Example 25, methyl 3-(3-(4-(pyridin-3-yloxy)phenoxy)azetidin-1-yl)-2-(1H-pyrrol-1-yl) benzoate]	> 50
O=C(NO)c1cccc(N2CC(Oc3ccc(OCc4cccnc4)cc3)C2)c1-n1cccc1 [Example 24b, N-hydroxy-3-(3-(4-(pyridin-3-ylmethoxy)phenoxy)azetidin-1-yl)-2-(1H-pyrrol-1-yl) benzamide]	< 1
O=C(Cc1ccc(C#Cc2cccc(C(=O)O)c2-c2ccccc2)cc1)Nc1cccnc1 [Example 60a, 6-((4-(2-oxo-2-(pyridin-3-ylamino)ethyl)phenyl)ethynyl)-[1,1′-biphenyl]-2-carboxylic acid]	< 1
O=C(O)c1cccc(N2CC(Oc3ccc(COc4cccnc4)cc3)C2)c1-n1cccc1 [Example 1a, 3-(3-(4-((pyridin-3-yloxy)methyl)phenoxy)azetidin-1-yl)-2-(1H-pyrrol-1-yl) benzoic acid]	1 to 10
